Data set [1] concerns the target T1, Acrosin (purified from boar sperm) (Sus scrofa, UniProt P08001).
T1 construct: purified from boar sperm; from tissue; host or cells: boar sperm
In words: Acrosin inhibition in vitro (BAPNA substrate). The data set is classed as biochemical. The following applies: sodium salts. On the procedure:
A control using the buffer solution without the test compound added is also run. A 200 μl-sample of the incubation mixture is then withdrawn and is added to a cuvette containing BAPNA (1 ml.) and triethanolamine buffer (2 ml.). The mixture is stirred and placed in a Gilford recording spectrophotometer. The increase in optical density at 383 nm is measured. One unit of acrosin activity is defined as the amount of acrosin which will cause an increase in optical density at 383 nm. of 0.001/minute. One unit of inhibitory activity is defined as the amount of inhibitor which will cause a reduction in the increase in optical density at 383 nm. of 0.001/minute.

Data set [2] has as its system zona pellucida of rabbit ova. Put plainly: Removal of zona pellucida from ova by acrosin, in vitro. It counts as cell-based. The following applies: 10 μl. of 10 mg./ml. solution, 37° C.; sulfate. On the procedure:
In the absence of sodium n-tetradecyl sulfate, complete removal of the cumulus oophorus and zona pellucida is observed.
Female rabbits are given 100 units of pregnant mares serum (PMS), IM, and 134 units of HCG, IV. After 13 hours the animals are sacrificed and the ovaries are excised. The ovaries are submerged in calcium-free Ringer's solution. Ova are removed and placed in 1 ml. of calcium-free Ringer's solution The solutions are all shaken vigorously for 5 to 10 minutes, which rids the ova of the cumulus oophorus and the corona radiata. Acrosin (isolated from boar sperm) (100 μl., of a solution containing 2000 U/ml. in 0.1 M sodium acetate and 0.02 M calcium chloride) is added to each of 10 ova. To each of 10 other ova in the same medium is added 10 μl. of solution of sodium n-tetradecyl sulfate (10 mg./ml.) in calcium-free Ringer's solution. To 10 other ova is added […]. of calcium-free Ringer's solution as a control. The solutions are all incubated at 37° C. The zona pellucida is observed at 15 minute intervals with an American Optical stereomicroscope. In the absence of sodium n-tetradecyl sulfate, the zona pellucida is completely removed.

The test system of data set [3] is female rabbits. Put plainly: Drug release rate and efficacy in vivo, intravaginal medicated rubber rings. Set-up: species or system rabbit. The following applies: vaginal ring 500 mg, 20% W/W; for Amount of sodium n-tetradecyl sulfate released. (μg. per day): per animal; for No. of Embryos (per animal): sulfate. On the procedure: Dimethylpolysiloxane rods (4 mm. diameter) weighing 500 mg. and containing 20% (W/W) sodium n-tetradecyl sulfate (prepared by Example 3, Method B, lot no. 225-3) are formed into a circle of approximately 20 mm. diameter. The rings are inserted into the vagina of female rabbits and are held in place by sutures. The rabbits are bred either 7 or 32 days after insertion of the rings. Eleven days after breeding, the animals are sacrificed and the genital system examined for pregnancy. The rings are removed, washed, and extracted with methanol (24 hour continuous,) to remove the remaining sodium n-tetradecyl sulfate. The amount of active compound is determined by the methylene blue method, as described in Part A, above. The amount of sodium n-tetradecyl sulfate remaining in the circular rod is subtracted from the original amount present, and the difference is assumed to be the amount released over the time period.

The subject of data set [4] is female Dutch belted rabbits. Put plainly: Efficacy of a vaginal suppository in female rabbits. It counts as in vivo, rabbit. The note with it: 100 mg. PEG suppository with 1 mg. compound, 15 minutes before breeding; 6 animals; after 12 days. How it is done:
Suppositories weighing 100 mg. are made to contain 1 mg. of sodium n-tetradecyl sulfate in a vehicle consisting of 35% polyethylene glycol 400, 35% polyethylene glycol 1540, and 30% polyethylene glycol 4000. A suppository is placed in the vagina of each of six female Dutch belted rabbits. After 15 minutes, each rabbit is bred to a buck of proven fertility and is injected with 100 I.U. of human chorionic gonadotropin. Each of six control animals are similarly treated using identical 100 mg. suppositories made from the same vehicle without the active compound. The animals are sacrificed after 12 days and are examined for embryos.

Several values for one entry are separate records, joined by “and”; a condition that tells them apart may be missing. Equal values may be shown once.

T1 sequence (P08001 40-338 limits assumed): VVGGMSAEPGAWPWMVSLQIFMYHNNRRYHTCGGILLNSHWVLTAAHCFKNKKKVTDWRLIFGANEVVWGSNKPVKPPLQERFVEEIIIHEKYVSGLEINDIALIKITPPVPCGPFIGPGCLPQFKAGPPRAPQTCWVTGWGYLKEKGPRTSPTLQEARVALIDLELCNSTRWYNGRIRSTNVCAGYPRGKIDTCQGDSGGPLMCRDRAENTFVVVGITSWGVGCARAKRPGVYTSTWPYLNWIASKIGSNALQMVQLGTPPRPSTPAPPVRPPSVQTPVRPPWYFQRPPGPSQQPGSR
T1 sequence (P08001 17-39 limits assumed): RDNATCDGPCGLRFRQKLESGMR

As to `CCCCCCCCCCCCCCOS(=O)(=O)[O-].[Na+]` [n-tetradecyl, sodium n-tetradecyl sulfate], the figures for the “Inhibition (units/mg.)” value in data set [1] (Conc. of Test Solution 1 Mg/ml) and in data set [1] (Conc. of Test Solution 10 Mg/ml) were 960,000 units/mg and 14,200 units/mg, respectively. Moreover, the “state of zona pellucida in presence of acrosin” value in data set [2] is reported as “remains substantially intact”. Also, the “Amount of sodium n-tetradecyl sulfate released. (μg. per day)” value is 760 μg. per day and 470 μg. per day and 961 μg. per day and 277 μg. per day and 894 μg. per day in data set [3] (after seven days); 644 μg. per day and 522 μg. per day and 288 μg. per day in data set [3] (after thirty-two days). The “No. of Embryos (per animal)” value was 0 and 8 and 5 in data set [3] (bred after seven days); 0 and 3 in data set [3] (bred after thirty-two days). Also, in data set [4], the “Embryos Per Animal (x + std. dev.)” value was found to be 0.5 ± 1.2. The “Total No. of embryos” value in data set [4] is 3.

(Values after patent publication US4264577A, “Contraceptive methods and compositions” (Eli Lilly and Company, priority 1980, dated 1981).)
